Test results: US11008313B2, “Substituted 1-methyl-1,2,3,4-tetrahydroisoquinoline molecules as PCSK9 allosteric binders” (Merck Sharp & Dohme Corp., priority 2016, dated 2021)
Several values for one entry are separate records, joined by “and”; a condition that tells them apart may be missing. Equal entries are not always repeated. Where two headings read alike, the source gives them in different places.

Columns and labels:
[1] = molecular target: T1, HEK293 cells stably overexpressing PCSK9 (Homo sapiens, UniProt Q8NBP7); experiment: Protein degradation assay (Western Blot/Sally Sue assay); assay type: cell-based; conditions: 24 hrs compound treatment, serum free DMEM
T1 construct: expressed in transfected cells
Protocol: Samples were run on the Sally Simple Western system from ProteinSimple (San Jose, Calif.) using default assay conditions. Briefly, 5×10^4 HEK293 cells stably overexpressing PCSK9 were seeded into Collagen I coated 96 well plates and allowed to recover overnight at 37° C. with 5% CO2. After 24 hrs of compound treatment in serum free DMEM cell culture medium, cells were washed with PBS and lysed in 100 ul RIPA buffer (Teknova) supplemented with protease inhibitors and subsequently mixed with fluorescent standards as per manufacturer's specifications, followed by denaturation at 95° C. for 5 minutes. Anti-PCSK9 mAb antibody (Abbomax, Cat. No. 601-650) was used for PCSK9 detection. The reported DC50 values represent the effective concentration of compound to lower PCSK9 protein levels, pro and mature, by 50%.

PCSK9 = PCSK9 (Homo sapiens, UniProt Q8NBP7); experiment: Fluorescence polarization competition binding assay (probe: compound of Example 57); conditions: 2 μM PCSK9, 50 nM compound of Example 57 as probe, overnight incubation; read-out: FP IC
Chain of PCSK9 (Q8NBP7 153-692): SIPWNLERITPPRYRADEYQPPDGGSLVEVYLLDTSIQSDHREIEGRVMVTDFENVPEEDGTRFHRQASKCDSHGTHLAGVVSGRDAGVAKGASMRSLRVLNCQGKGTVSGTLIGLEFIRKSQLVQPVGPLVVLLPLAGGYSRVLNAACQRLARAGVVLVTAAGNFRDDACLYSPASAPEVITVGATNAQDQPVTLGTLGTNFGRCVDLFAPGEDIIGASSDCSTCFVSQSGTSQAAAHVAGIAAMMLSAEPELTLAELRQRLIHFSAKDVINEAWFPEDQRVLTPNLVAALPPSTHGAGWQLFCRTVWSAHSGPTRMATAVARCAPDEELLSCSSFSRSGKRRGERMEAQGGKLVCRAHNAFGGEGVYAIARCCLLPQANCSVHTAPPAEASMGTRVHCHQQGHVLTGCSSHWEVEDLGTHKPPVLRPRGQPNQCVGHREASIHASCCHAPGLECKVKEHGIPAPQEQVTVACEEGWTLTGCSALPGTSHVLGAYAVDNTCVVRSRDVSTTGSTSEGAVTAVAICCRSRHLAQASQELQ
Summary of the method: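 Competition fluorescence-polarization binding: 2 μM PCSK9 with 50 nM fluorescent probe in 20 mM HEPES pH 7.5, 150 mM NaCl, 1 mM CaCl2, 0.005% P-20, incubated with test compound overnight in the dark. Anisotropy read; % inhibition relative to DMSO wells and probe-without-PCSK9 wells.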

[2] = mature PCSK9 protein level lowered by 50%, read-out: PCSK9 DC50 (Mature)
[3] = pro PCSK9 protein level lowered by 50%, read-out: PCSK9 DC50 (Pro)
[4] = mature PCSK9 protein level lowered by 50%
[5] = pro PCSK9 protein level lowered by 50%

| SMILES | DC50 [1, 2] [µM] | DC50 [1, 3] [µM] | IC50 (PCSK9) | PCSK9 DC50 (Mature) μM [1, 4] | PCSK9 DC50 (Pro) μM [1, 5] |
| --- | --- | --- | --- | --- | --- |
| C[C@]1(CC(=O)Nc2nccs2)NCCc2cc(OCCOCCOCCNC(=O)CC34CC5CC(CC(C5)C3)C4)c(Oc3ccc(-c4ccc(C(=O)O)cc4)c(F)c3)cc21 [Example 94, 4-(((R)-6-(2-(2-(2-(2-((3r,5r,7r)-adamantan-1-yl)acetamido)ethoxy)ethoxy)ethoxy)-1-methyl-1-(2-oxo-2-(thiazol-2-ylamino)ethyl)-1,2,3,4-tetrahydroisoquinolin-7-yl)oxy)-2′-fluoro-[1,1′-biphenyl]-4-carboxylic acid] | 8.52 | 1.36 | 76.9 nM |  |  |
| CC(C)Cc1ccc([C@H](C)C(=O)NCCOCCOCCOc2cc3c(cc2Oc2ccc(-c4ccc(C(=O)O)cc4)c(F)c2)[C@@](C)(CC(=O)Nc2nccs2)NCC3)cc1 [Example 93] | 4.24 | 6.18 | 188 nM and 578 nM |  |  |
| COCCOc1cc2c(cc1Oc1ccc(-c3ccc(C(=O)O)cc3)c(F)c1)[C@@](C)(CC(=O)Nc1nccs1)NCC2 [Example 101, (R)-2′-fluoro-4′-((6-(2-methoxyethoxy)-1-methyl-1-(2-oxo-2-(thiazol-2-ylamino)ethyl)-1,2,3,4-tetrahydroisoquinolin-7-yl)oxy)-[1,1′-biphenyl]-4-carboxylic acid] |  |  | 130 nM | inactive | Inactive |
| Cc1ncsc1-c1ccc(CNC(=O)[C@@H]2C[C@@H](O)CN2C(=O)[C@@H](NC(=O)COCCOCCOCC(=O)NCCOCCOc2cc3c(cc2Oc2ccc(-c4ccc(C(=O)O)cc4)c(F)c2)[C@@](C)(CC(=O)Nc2nccs2)NCC3)C(C)(C)C)cc1 [Example 103, 2′-fluoro-4′-(((R)-6-(((S)-19-((2S,4R)-4-hydroxy-2-((4-(4-methylthiazol-5-yl)benzyl)carbamoyl)pyrrolidine-1-carbonyl)-20,20-dimethyl-7,17-dioxo-3,9,12,15-tetraoxa-6,18-diazahenicosyl)oxy)-1-methyl-1-(2-oxo-2-(thiazol-2-ylamino)ethyl)-1,2,3,4-tetrahydroisoquinolin-7-yl)oxy)-[1,1′-biphenyl]-4-carboxylic acid] |  |  | 162 nM | inactive | Inactive |
| CC(C)Cc1ccc([C@H](C)C(=O)NCCOCCOCCOCCOc2cc3c(cc2Oc2ccc(-c4ccc(C(=O)O)cc4)c(F)c2)[C@@](C)(CC(=O)Nc2nccs2)NCC3)cc1 [Example 98, 2′-fluoro-4′-(((R)-6-(((S)-14-(4-isobutylphenyl)-13-oxo-3,6,9-trioxa-12-azapentadecyl)oxy)-1-methyl-1-(2-oxo-2-(thiazol-2-ylamino)ethyl)-1,2,3,4-tetrahydroisoquinolin-7-yl)oxy)-[1,1′-biphenyl]-4-carboxylic acid] | 5.07 | 6.08 | 260 nM |  |  |
| CC(C)C[C@H](NC(=O)[C@@H](O)[C@H](N)Cc1ccccc1)C(=O)NCCOCCOCCOCCOc1cc2c(cc1Oc1ccc(-c3ccc(C(=O)O)cc3)c(F)c1)[C@@](C)(CC(=O)Nc1nccs1)NCC2 [Example 97, 4′-(((R)-6-(((14S,17S,18R)-18-amino-17-hydroxy-14-isobutyl-13,16-dioxo-19-phenyl-3,6,9-trioxa-12,15-diazanonadecyl)oxy)-1-methyl-1-(2-oxo-2-(thiazol-2-ylamino)ethyl)-1,2,3,4-tetrahydroisoquinolin-7-yl)oxy)-2′-fluoro-[1,1′-biphenyl]-4-carboxylic acid] |  |  | 130 nM | inactive | Inactive |
